Data taken from patent publication US12617744B2, “Production method for reduced coenzyme Q10 form-II type crystal or crystalline solid thereof” (KANEKA CORPORATION, priority 2021, dated 2026).

Legend:
[1] = Evaluation of slurry filterability by constant pressure filtration (average specific filtration resistance); type: physicochemical; details: slurry cooled to 1° C., filtrate volume 200 mL, filtration pressure 0.1 hPa
Method: The slurries obtained in Examples and Comparative Example were subjected to constant pressure filtration with a filtrate volume of 200 mL and a filtration pressure of 0.1 hPa and the filtration rate was measured. The average specific filtration resistance (αav) was calculated and used for the evaluation of filterability.

[2] = Median diameter measurement with particle size distribution analyzer; type: physicochemical; details: reduced coenzyme Q10 crystal obtained; Partica LA-960
Method: The median diameters of reduced coenzyme Q10 crystals obtained in Examples and Comparative Example were measured using the device described below. • Particle size distribution analyzer: Partica LA-960 <Percentage of Form II Crystal in Reduced Coenzyme Q10 Crystal>

[3] = compared with oxidized coenzyme Q10; cited from earlier work
[4] = Saturation concentration of crystal forms in alcohol; type: physicochemical; details: Form II crystal compared with Form I crystal
Text: The alcohol is preferably a monohydric alcohol having 1 to 5 carbon atoms. Examples of a monohydric alcohol having 1 to 5 carbon atoms include methanol, ethanol, n-propanol, isopropanol, n-butanol, isobutanol, and n-pentanol. As the alcohol, ethanol is particularly preferable because the saturation concentration of Form II crystal is sufficiently lower than the saturation concentration of Form I crystal and is easy to handle. As the alcohol, those exemplified above may be used alone, or two or more thereof may be mixed and used.

[5] = compared with conventional reduced coenzyme Q10 Form I crystal; cited from earlier work

SMILES | average specific filtration resistance (αav) [1] | Median diameter [2] [μm] | oral absorbability [3] | saturation concentration in an alcohol [4] | stability of crystal form [5]
COc1c(O)c(C)c(C/C=C(\C)CC/C=C(\C)CC/C=C(\C)CC/C=C(\C)CC/C=C(\C)CC/C=C(\C)CC/C=C(\C)CC/C=C(\C)CC/C=C(\C)CCC=C(C)C)c(O)c1OC [Example 1, reduced coenzyme Q10] | 0.47×10^10 m/kg | 115.3 |  |  | 
COc1c(O)c(C)c(C/C=C(\C)CC/C=C(\C)CC/C=C(\C)CC/C=C(\C)CC/C=C(\C)CC/C=C(\C)CC/C=C(\C)CC/C=C(\C)CC/C=C(\C)CCC=C(C)C)c(O)c1OC [Example 2, reduced coenzyme Q10] | 0.98×10^10 m/kg | 87.6 |  |  | 
COc1c(O)c(C)c(C/C=C(\C)CC/C=C(\C)CC/C=C(\C)CC/C=C(\C)CC/C=C(\C)CC/C=C(\C)CC/C=C(\C)CC/C=C(\C)CC/C=C(\C)CCC=C(C)C)c(O)c1OC [Example 3, reduced coenzyme Q10] | 0.48×10^10 m/kg | 107.3 |  |  | 
COc1c(O)c(C)c(C/C=C(\C)CC/C=C(\C)CC/C=C(\C)CC/C=C(\C)CC/C=C(\C)CC/C=C(\C)CC/C=C(\C)CC/C=C(\C)CC/C=C(\C)CCC=C(C)C)c(O)c1OC [Comparative Example 1, reduced coenzyme Q10] | 3.4×10^10 m/kg | 68.2 |  |  | 
COc1c(O)c(C)c(C/C=C(\C)CC/C=C(\C)CC/C=C(\C)CC/C=C(\C)CC/C=C(\C)CC/C=C(\C)CC/C=C(\C)CC/C=C(\C)CC/C=C(\C)CCC=C(C)C)c(O)c1OC [reduced coenzyme Q10] |  |  | higher oral absorbability than that of oxidized coenzyme Q10 |  | 
COc1c(O)c(C)c(C/C=C(\C)CC/C=C(\C)CC/C=C(\C)CC/C=C(\C)CC/C=C(\C)CC/C=C(\C)CC/C=C(\C)CC/C=C(\C)CC/C=C(\C)CCC=C(C)C)c(O)c1OC [reduced coenzyme Q10 Form II crystal, reduced coenzyme Q10] |  |  |  | lower than the saturation concentration of a Form I crystal | much more stable than the conventional reduced coenzyme Q10
